According to EP4775586A1, “DEUTERATED TETRACYCLIC DERIVATIVE AND USE THEREOF” (priority 2023, dated 2025):
Converted amounts (≈) assume the structure as drawn. “And” between values parts separate entries of the source, which are not always exact repeats. Equal values may be shown once. Read-outs that look alike come from different tables or passages of the source.

How the values were obtained:
[1] = Pharmacokinetics and lung tissue distribution in mice, LC-MS/MS; format: in vivo, Balb/C mice; conditions: 100 mg/kg
Experimental: In this example, the pharmacokinetic parameters and lung tissue distribution of the deuterated compounds YF027, YF032, YF036, and YF044 and their respective non-deuterated control compounds (A, B, C, and D) were determined.
Balb/C mice, male (1 group at each time point, 5 mice per group, 55 mice per compound in total), 7-8 weeks old, weighing about 20 g, animal source: Beijing Vital River Laboratory Animal Technology Co., Ltd.
The test compound was completely dissolved in an 8% Tween-80 aqueous solution. A 10 mg/mL drug liquid was prepared for intraperitoneal injection and intragastric administration.
Single intragastric administration was performed at a dose of 100 mg/kg. The pharmacokinetic differences between the deuterated compounds YF027, YF032, YF036, and YF044 and their respective non-deuterated controls A, B, C, and D were compared.
The mice were fasted overnight before administration. In the experiment, orbital venous blood and lung tissue were collected from the mice at time points of no administration group (0 min) and 10 min, 20 min, 30 min, 1 h, 2 h, 3 h, 4 h, 6 h, 8 h, and 24 h after intragastric administration, and about 300 µL of blood was collected from the eyeballs each time.
The collected blood sample was placed in an anticoagulation tube, and quickly inverted and mixed well. The tube was temporarily placed on ice after being labeled. The blood samples temporarily stored on ice were subjected to low-temperature centrifugation within 1 h at 4 °C at 3000 rpm for 10 min. The supernatant obtained after centrifugation was plasma. The plasma was transferred to a new centrifuge tube and stored in a refrigerator at -80 °C for subsequent detection.
The lung tissues of the mice were collected, washed with pre-cooled normal saline to remove the residual blood and tissue fluid, dried with absorbent paper, weighed with a balance, and placed into a centrifuge tube. The tubes were marked and stored in a refrigerator at -80 °C.
The concentrations of the compounds of the present disclosure and control compounds in plasma and lung tissue were determined using LC-MS/MS. Table 2. Pharmacokinetic parameters of compound YF027 of the present disclosure and control compound A

[2] = system: Mycobacterium tuberculosis H37Rv; test: Minimum inhibitory concentration (MIC90) against Mycobacterium tuberculosis H37Rv, Middlebrook 7H9, 96-well plate, 15 days; format: cell-based; conditions: Mycobacterium tuberculosis H37Rv, 15 days of incubation, 90% inhibition of growth, visual reading
[3] = system: Mycobacterium tuberculosis H37Rv; format: in vivo, BALB/c mice
liver microsomes = test: Liver microsome incubation of positive control group (positive substrates); format: in vitro ADME, mouse
Experimental: This example was to detect the CYP450 metabolic enzyme phenotype of the deuterated compound YF027 and its non-deuterated control compound A (using a CYP450 enzyme metabolic phenotype research kit (recombinant enzymatic method/7 enzymes)-mouse liver microsome test).
• a. The test compound was prepared into a 40 mM stock solution for later use. 2.5 µL of the stock solution was taken and diluted with DMSO to a test compound concentration of 200 µM, and the compound at this concentration was used in subsequent tests. • b. The working solution concentration of the mixed positive substrates, phenacetin and testosterone, was 200 µM.
1) The components of the kit were thawed in an ice bath. The mixture was well mixed by vortexing and then placed on ice for later use. 2) In addition to the microsomes, the other components of the incubation systems were mixed according to the ratios and well mixed by pipetting, and the ratios of the incubation systems are shown below; Table 6. Incubation system of positive control group
3) Except for the negative control group (Table 9), 3.125 µL of liver microsomes was added to each of the above incubation systems to prepare 125 µL of reaction solution. The reaction solutions were well mixed by vortexing, and then placed in a water bath at 37 °C to initiate the reaction. A timer was set. […]

[4] = Balb/C mice, single intragastric administration, plasma
[5] = Balb/C mice, single intragastric administration, plasma, 1440 min
[6] = Mycobacterium tuberculosis, H37RV, 360 h

## 8-((4-(3-Chlorophenyl)piperidin-1-yl-2,2,6,6-d4)methyl-d2)-3,9-dihydroxybenzo[5,6]oxepino[4,3-b]benzofuran-7(5H)-one hydrochloride [YF032]
[1]; [4]
  AUC0-∞: 14032.28 ng·h/mL
  CL: 119 mL/min/kg
  Cmax: 4332.29 ng/mL
  Tmax: 1.00 h
  t1/2: 1.85 h
[1]; [5]
  AUC0-t: 14030.17 ng·h/mL
[2]
  MIC90: 0.0625 µg/mL
[3]; mouse, in vivo
  reduction in bacterial load: 0.81 log

## 3,9-Dihydroxy-8-((4-(1-hydroxybutyl-1-d)piperidin-2,2,6,6-d4-1-yl)methyl)benzo[5,6]oxepino[4,3-b]benzofuran-7(5H)-one hydrochloride [YF044]
[1]; mouse, in vivo, po
  AUC0-∞: 111067.0 ng·h/mL
  CL: 150 mL/min/kg
  Cmax: 4041.90 ng/mL
  Lung tissue distribution Cmax: 43437.42 ng/g
  Tmax: 0.50 h
  t1/2: 2.03 h
[1]; mouse, in vivo, po, 24 h
  AUC0-t: 11104.68 ng·h/mL
[2]
  MIC90: 0.0078 µg/mL

## CCCC(=O)C1CCN(Cc2c(O)ccc3oc4c(c23)C(=O)OCc2cc(O)ccc2-4)CC1 [Compound C]
[1]; mouse, in vivo, po
  AUC(0-inf): 5430 ng·h/mL
  AUC(0-t) at 24 h: 4960 ng·h/mL
  CL: 307.2 mL/min/kg
  Cmax: 944 ng/mL and 5420 ng/g
  Tmax: 0.5 h
  half-life: 7.12 h
[2]; 360 h, read-out: MIC90
  MIC90: 0.0625 µg/mL (≈ 0.139 µM)
[3]; mouse, in vivo
  reduction of pulmonary bacterial load: 1.99 log

## O=C1OCc2cc(O)ccc2-c2oc3ccc(O)c(CN4CCC(c5cccc(Cl)c5)CC4)c3c21 [Compound B]
[1]; mouse, in vivo, po
  AUC(0-inf): 10400 ng·h/mL
  AUC(0-t) at 24 h: 10300 ng·h/mL
  CL: 161 mL/min/kg
  Cmax: 3570 ng/mL and 23400 ng/g
  Tmax: 1 h
  half-life: 1.74 h
[2]; 360 h, read-out: MIC90
  MIC90: 0.125 µg/mL (≈ 0.255 µM)
[3]; 4 weeks intragastrically, Table 11 prints 50 mg/kg, text implies twice the dose of YF032
  bacteriostatic activity in mice: no bacteriostatic activity

## CCOc1ccc(NC(C)=O)cc1 [phenacetin]
Liver microsomes
  metabolism of positive substrate: almost completely metabolized

## CCCC(O)C1CCN(Cc2c(O)ccc3oc4c(c23)C(=O)OCc2cc(O)ccc2-4)CC1 (stereo not drawn) [Compound D]
[1]; mouse, in vivo, po
  AUC(0-inf): 4500 ng·h/mL
  AUC(0-t) at 24 h: 4470 ng·h/mL
  CL: 371.3 mL/min/kg
  Cmax: 2110 ng/mL and 13500 ng/g
  half-life: 2.86 h
[2]; 360 h, read-out: MIC90
  MIC90: 0.0156 µg/mL (≈ 0.0346 µM)

## 8-((4-Butanoylpiperidin-1-yl-2,2,6,6-d4)-methyl-d2)-3,9-dihydroxybenzo[5,6]oxepino[4,3-b]benzofuran-7(5H)-one hydrochloride [YF036]
[1]; [4]
  AUC0-∞: 5883.88 ng·h/mL
  CL: 283.3 mL/min/kg
  Cmax: 2084.39 ng/mL
  Tmax: 0.33 h
  t1/2: 4.75 h
[1]; [5]
  AUC0-t: 5655.66 ng·h/mL
[2]
  MIC90: 0.03125 µg/mL
[3]; mouse, in vivo
  reduction of pulmonary bacterial load: 1.87 log

## C[C@]12CC[C@H]3[C@@H](CCC4=CC(=O)CC[C@@]43C)[C@@H]1CC[C@@H]2O [testosterone]
Liver microsomes; liver microsomes, after 90 min of incubation, 37 °C
  metabolism of positive substrate: almost completely metabolized

## [2H]C([2H])(CC)C([2H])(O)C1([2H])CCN(Cc2c(O)ccc3oc4c(c23)C(=O)OCc2cc(O)ccc2-4)CC1 (stereo not drawn) [YF018, 3,9-Dihydroxy-8-((4-(1-hydroxybutyl-1,2,2-d3)piperidin-1-yl-4-d)methyl)benzo[5,6]oxepino[4,3-b]benzofuran-7(5H)-one]
[2]; 360 h, read-out: MIC90
  MIC90: 0.0156 µg/mL (≈ 0.0342 µM)

## [2H]C([2H])(c1c(O)cc(C(C)(C)C)c2oc3c4ccc(O)cc4oc(=O)c3c12)N1C([2H])([2H])C([2H])([2H])C([2H])([2H])C([2H])([2H])C1([2H])[2H] [YF005, 10-(tert-Butyl)-3,8-dihydroxy-7-((piperidin-1-yl-d10)methyl-d2)-6H-benzofuran[3,2-c]chromen-6-one]
[2]; [6]
  MIC90: ≤ 0.0039 µg/mL

## [2H]C1([2H])CCCC([2H])([2H])N1C([2H])([2H])c1c(O)cc(C(C)(C)C)c2oc3c4ccc(O)cc4oc(=O)c3c12 [YF003, 10-(tert-Butyl)-3,8-dihydroxy-7-((piperidin-1-yl-2,2,6,6-d4)methyl-d2)-6H-benzofuran[3,2-c]chromen-6-one]
[2]; [6]
  MIC90: ≤ 0.0039 µg/mL
